Experimental data from publication PMC7531004, “Discovery of gramicidin A analogues with altered activities by multidimensional screening of a one-bead-one-compound library” (Nature Communications, 2020).
Where a SMILES comes first, the peptide text is derived from it. [ ]: non-standard residue; d: D form. The star is where a group is joined. NHCH2CH2OH = OCCN*; For = O=C*

Key:
[1] = H+/Na+ transport assay of bead-derived peptides (one-point); format: biochemical; set-up: key: relative activity; mean of two control wells = 1.00; settings: bead-derived peptide solution, EYPC/EYPG LUVs;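 note: relative to parent gramicidin A activity set to 1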
Method in brief: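 Miniaturized 96-well format. LUVs with entrapped pyranine (1.0 mM) were exposed to peptide for 30 min at RT. Intensities were expressed relative to full lysis by Triton X-100 and no treatment, with control-well mean = 1.00.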

[2] = test system: P388 mouse leukemia cells; settings: 92 h
Method in brief: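 First, library peptide stocks are diluted 250-fold in RPMI1640 with 10% heat-inactivated FBS. Next, they are mixed with P388 cells to give 1 × 10^4 cells/mL and incubated 92 h at 37 °C, 5% CO2. Finally, viability (%) is scored by WST-1 absorbance at 415 nm.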

[3] = test system: Streptococcus pyogenes SSI-9; test: Antibacterial activity assay of bead-derived peptides (three concentrations); format: cell-based; set-up: key: +++: inhibition by the 640-fold diluted peptide solution; ++: inhibition by the 160-fold diluted solution; +: inhibition by the 40-fold diluted solution; -: no inhibition; settings: S. pyogenes, bead-derived peptide solution, three concentrations
Method in brief: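 Three stock dilutions per peptide (none, 4-fold, 16-fold in DMSO) are screened in 96-well format. The medium is blood-supplemented cation-adjusted MHB, inoculated with 2 × 10^5 CFU S. pyogenes SSI-9. Growth is read as cell precipitation at 18 h, 37 °C.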

SMILES	H+/Na+ transport activity normalized against the value of 1 (1.00) [1]	cell viability/% [2]	antibacterial activity [3]
CC(C)C[C@@H](NC(=O)[C@H](C)NC(=O)CNC(=O)[C@@H](NC=O)C(C)C)C(=O)N[C@@H](C)C(=O)N[C@H](CC(C)C)C(=O)N[C@H](C(=O)N[C@H](CC(C)C)C(=O)N[C@@H](Cc1c[nH]c2ccccc12)C(=O)N[C@H](CC(C)C)C(=O)N[C@@H](Cc1c[nH]c2ccccc12)C(=O)N[C@H](CC(C)C)C(=O)N[C@@H](Cc1c[nH]c2ccccc12)C(=O)N[C@@H](C(=O)N[C@@H](Cc1c[nH]c2ccccc12)C(=O)NCCO)C(C)C)C(C)C [compound 6639] (For-VGA[dL]A[dL]V[dL]W[dL]W[dL]W[dV]W-NHCH2CH2OH)	1.01	0.0%	+
CC(C)C[C@@H](NC(=O)[C@H](C)NC(=O)CNC(=O)[C@@H](NC=O)C(C)C)C(=O)N[C@@H](C)C(=O)N[C@@H](C(=O)N[C@H](C(=O)N[C@@H](C(=O)N[C@@H](Cc1c[nH]c2ccccc12)C(=O)N[C@H](CC(C)C)C(=O)N[C@@H](Cc1c[nH]c2ccccc12)C(=O)N[C@H](CC(C)C)C(=O)N[C@@H](Cc1c[nH]c2ccccc12)C(=O)N[C@@H](C(=O)N[C@@H](Cc1c[nH]c2ccccc12)C(=O)NCCO)C(C)C)[C@H](C)O)C(C)C)C(C)C [compound 6702] (For-VGA[dL]A[dV]V[dT]W[dL]W[dL]W[dV]W-NHCH2CH2OH)	1.03	100.0%	+
CNC(=O)C[C@@H](NC(=O)[C@@H](NC(=O)[C@@H](CC(C)C)NC(=O)[C@H](C)NC(=O)[C@@H](CC(C)C)NC(=O)[C@H](C)NC(=O)CNC(=O)[C@@H](NC=O)C(C)C)C(C)C)C(=O)N[C@@H](Cc1c[nH]c2ccccc12)C(=O)N[C@@H](C(=O)N[C@@H](Cc1c[nH]c2ccccc12)C(=O)N[C@H](CC(C)C)C(=O)N[C@@H](Cc1c[nH]c2ccccc12)C(=O)N[C@H](CC(C)C)C(=O)N[C@@H](Cc1c[nH]c2ccccc12)C(=O)NCCO)C(C)C [compound 6703] (For-VGA[dL]A[dL]V[dD](NHMe)W[dV]W[dL]W[dL]W-NHCH2CH2OH)	1.17	100.0%	-
CC(C)C[C@@H](NC(=O)[C@H](C)NC(=O)CNC(=O)[C@@H](NC=O)C(C)C)C(=O)N[C@@H](C)C(=O)N[C@@H](C(=O)N[C@H](C(=O)N[C@@H](C(=O)N[C@@H](Cc1c[nH]c2ccccc12)C(=O)N[C@H](CC(C)C)C(=O)N[C@@H](Cc1c[nH]c2ccccc12)C(=O)N[C@H](CC(C)C)C(=O)N[C@@H](Cc1c[nH]c2ccccc12)C(=O)N[C@H](CC(C)C)C(=O)N[C@@H](Cc1c[nH]c2ccccc12)C(=O)NCCO)[C@H](C)O)C(C)C)C(C)C [compound 6766] (For-VGA[dL]A[dV]V[dT]W[dL]W[dL]W[dL]W-NHCH2CH2OH)	1.07	100.0%	+
CC(C)C[C@@H](NC(=O)[C@@H](NC(=O)[C@H](NC(=O)[C@H](C)NC(=O)[C@H](NC(=O)[C@H](C)NC(=O)CNC(=O)[C@@H](NC=O)C(C)C)C(C)C)C(C)C)C(C)C)C(=O)N[C@@H](Cc1c[nH]c2ccccc12)C(=O)N[C@@H](C(=O)N[C@@H](Cc1c[nH]c2ccccc12)C(=O)N[C@@H](C(=O)N[C@@H](Cc1c[nH]c2ccccc12)C(=O)N[C@@H](C(=O)N[C@@H](Cc1c[nH]c2ccccc12)C(=O)NCCO)[C@H](C)O)C(C)C)C(C)C [compound 6781] (For-VGA[dV]A[dV]V[dL]W[dV]W[dV]W[dT]W-NHCH2CH2OH)	1.04	100.0%	+
CC(C)C[C@@H](NC(=O)[C@H](C)NC(=O)[C@H](NC(=O)[C@H](C)NC(=O)CNC(=O)[C@@H](NC=O)C(C)C)[C@H](C)O)C(=O)N[C@H](C(=O)N[C@H](CC(C)C)C(=O)N[C@@H](Cc1c[nH]c2ccccc12)C(=O)N[C@@H](C(=O)N[C@@H](Cc1c[nH]c2ccccc12)C(=O)N[C@H](CC(C)C)C(=O)N[C@@H](Cc1c[nH]c2ccccc12)C(=O)N[C@@H](C(=O)N[C@@H](Cc1c[nH]c2ccccc12)C(=O)NCCO)C(C)C)C(C)C)C(C)C [compound 6797] (For-VGA[dT]A[dL]V[dL]W[dV]W[dL]W[dV]W-NHCH2CH2OH)	1.02	100.0%	-
CNC(=O)C[C@@H](NC(=O)[C@H](Cc1c[nH]c2ccccc12)NC(=O)[C@H](NC(=O)[C@H](Cc1c[nH]c2ccccc12)NC(=O)[C@H](NC(=O)[C@H](Cc1c[nH]c2ccccc12)NC(=O)[C@@H](CC(C)C)NC(=O)[C@@H](NC(=O)[C@H](NC(=O)[C@H](C)NC(=O)[C@@H](CC(C)C)NC(=O)[C@H](C)NC(=O)CNC(=O)[C@@H](NC=O)C(C)C)C(C)C)C(C)C)C(C)C)C(C)C)C(=O)N[C@@H](Cc1c[nH]c2ccccc12)C(=O)NCCO [compound 6808] (For-VGA[dL]A[dV]V[dL]W[dV]W[dV]W[dD](NHMe)W-NHCH2CH2OH)	1.02	100.0%	-
CC(C)C[C@@H](NC(=O)[C@H](Cc1c[nH]c2ccccc12)NC(=O)[C@H](NC(=O)[C@H](Cc1c[nH]c2ccccc12)NC(=O)[C@H](NC(=O)[C@@H](NC(=O)[C@H](NC(=O)[C@H](C)NC(=O)[C@H](NC(=O)[C@H](C)NC(=O)CNC(=O)[C@@H](NC=O)C(C)C)[C@H](C)O)C(C)C)C(C)C)C(C)C)C(C)C)C(=O)N[C@@H](Cc1c[nH]c2ccccc12)C(=O)N[C@@H](C(=O)N[C@@H](Cc1c[nH]c2ccccc12)C(=O)NCCO)C(C)C [compound 6820] (For-VGA[dT]A[dV]V[dV]W[dV]W[dL]W[dV]W-NHCH2CH2OH)	1.20	100.0%	-
CNC(=O)C[C@@H](NC(=O)[C@@H](NC(=O)[C@@H](CC(C)C)NC(=O)[C@H](C)NC(=O)[C@H](NC(=O)[C@H](C)NC(=O)CNC(=O)[C@@H](NC=O)C(C)C)C(C)C)C(C)C)C(=O)N[C@@H](Cc1c[nH]c2ccccc12)C(=O)N[C@H](CC(C)C)C(=O)N[C@@H](Cc1c[nH]c2ccccc12)C(=O)N[C@@H](C(=O)N[C@@H](Cc1c[nH]c2ccccc12)C(=O)N[C@@H](C(=O)N[C@@H](Cc1c[nH]c2ccccc12)C(=O)NCCO)C(C)C)C(C)C [compound 6822] (For-VGA[dV]A[dL]V[dD](NHMe)W[dL]W[dV]W[dV]W-NHCH2CH2OH)	1.23	100.0%	-
CNC(=O)C[C@@H](NC(=O)[C@H](Cc1c[nH]c2ccccc12)NC(=O)[C@@H](CC(C)C)NC(=O)[C@H](Cc1c[nH]c2ccccc12)NC(=O)[C@@H](CC(C)C)NC(=O)[C@H](Cc1c[nH]c2ccccc12)NC(=O)[C@H](NC(=O)[C@@H](NC(=O)[C@@H](CC(C)C)NC(=O)[C@H](C)NC(=O)[C@@H](CC(C)C)NC(=O)[C@H](C)NC(=O)CNC(=O)[C@@H](NC=O)C(C)C)C(C)C)C(C)C)C(=O)N[C@@H](Cc1c[nH]c2ccccc12)C(=O)NCCO [compound 6829] (For-VGA[dL]A[dL]V[dV]W[dL]W[dL]W[dD](NHMe)W-NHCH2CH2OH)	1.05	100.0%	-
CC(C)C[C@@H](NC(=O)[C@H](Cc1c[nH]c2ccccc12)NC(=O)[C@H](NC(=O)[C@@H](NC(=O)[C@H](NC(=O)[C@H](C)NC(=O)[C@H](NC(=O)[C@H](C)NC(=O)CNC(=O)[C@@H](NC=O)C(C)C)[C@H](C)O)C(C)C)C(C)C)C(C)C)C(=O)N[C@@H](Cc1c[nH]c2ccccc12)C(=O)N[C@H](CC(C)C)C(=O)N[C@@H](Cc1c[nH]c2ccccc12)C(=O)N[C@@H](C(=O)N[C@@H](Cc1c[nH]c2ccccc12)C(=O)NCCO)C(C)C [compound 6843] (For-VGA[dT]A[dV]V[dV]W[dL]W[dL]W[dV]W-NHCH2CH2OH)	1.15	100.0%	-
CNC(=O)C[C@@H](NC(=O)[C@@H](NC(=O)[C@@H](CC(C)C)NC(=O)[C@H](C)NC(=O)[C@@H](CC(C)C)NC(=O)[C@H](C)NC(=O)CNC(=O)[C@@H](NC=O)C(C)C)C(C)C)C(=O)N[C@@H](Cc1c[nH]c2ccccc12)C(=O)N[C@H](CC(C)C)C(=O)N[C@@H](Cc1c[nH]c2ccccc12)C(=O)N[C@H](CC(C)C)C(=O)N[C@@H](Cc1c[nH]c2ccccc12)C(=O)N[C@@H](C(=O)N[C@@H](Cc1c[nH]c2ccccc12)C(=O)NCCO)C(C)C [compound 6851] (For-VGA[dL]A[dL]V[dD](NHMe)W[dL]W[dL]W[dV]W-NHCH2CH2OH)	1.16	100.0%	-
CC(C)C[C@@H](NC(=O)[C@H](C)NC(=O)[C@H](NC(=O)[C@H](C)NC(=O)CNC(=O)[C@@H](NC=O)C(C)C)[C@H](C)O)C(=O)N[C@H](C(=O)N[C@@H](C(=O)N[C@@H](Cc1c[nH]c2ccccc12)C(=O)N[C@@H](C(=O)N[C@@H](Cc1c[nH]c2ccccc12)C(=O)N[C@H](CC(C)C)C(=O)N[C@@H](Cc1c[nH]c2ccccc12)C(=O)N[C@@H](C(=O)N[C@@H](Cc1c[nH]c2ccccc12)C(=O)NCCO)C(C)C)C(C)C)C(C)C)C(C)C [compound 6857] (For-VGA[dT]A[dL]V[dV]W[dV]W[dL]W[dV]W-NHCH2CH2OH)	1.16	100.0%	-
